Reference: BigSolDB 2.1

SMILES: O=C1CCC(=O)CC1
- solubility (mole fraction) (in acetone, 278.15 K): 0.177
- solubility (mole fraction) (in acetone, 283.15 K): 0.21
- solubility (mole fraction) (in acetone, 288.15 K): 0.248
- solubility (mole fraction) (in acetone, 293.15 K): 0.29
- solubility (mole fraction) (in acetone, 298.15 K): 0.338
- solubility (mole fraction) (in acetone, 303.15 K): 0.391
- solubility (mole fraction) (in acetone, 308.15 K): 0.454
- solubility (mole fraction) (in acetone, 313.15 K): 0.52
- solubility (mole fraction) (in acetonitrile, 278.15 K): 0.241
- solubility (mole fraction) (in acetonitrile, 283.15 K): 0.273
- solubility (mole fraction) (in acetonitrile, 288.15 K): 0.311
- solubility (mole fraction) (in acetonitrile, 293.15 K): 0.35
- solubility (mole fraction) (in acetonitrile, 298.15 K): 0.391
- solubility (mole fraction) (in acetonitrile, 303.15 K): 0.434
- solubility (mole fraction) (in acetonitrile, 308.15 K): 0.481
- solubility (mole fraction) (in acetonitrile, 313.15 K): 0.533
- solubility (mole fraction) (in cyclohexane, 283.15 K): 0.000676
- solubility (mole fraction) (in cyclohexane, 288.15 K): 0.000868
- solubility (mole fraction) (in cyclohexane, 293.15 K): 0.00111
- solubility (mole fraction) (in cyclohexane, 298.15 K): 0.00141
- solubility (mole fraction) (in cyclohexane, 303.15 K): 0.00182
- solubility (mole fraction) (in cyclohexane, 308.15 K): 0.00234
- solubility (mole fraction) (in cyclohexane, 313.15 K): 0.00293
- solubility (mole fraction) (in ethanol, 278.15 K): 0.0215
- solubility (mole fraction) (in ethanol, 283.15 K): 0.0301
- solubility (mole fraction) (in ethanol, 288.15 K): 0.0479
- solubility (mole fraction) (in ethanol, 293.15 K): 0.0777
- solubility (mole fraction) (in ethanol, 298.15 K): 0.121
- solubility (mole fraction) (in ethanol, 303.15 K): 0.183
- solubility (mole fraction) (in ethanol, 308.15 K): 0.265
- solubility (mole fraction) (in ethanol, 313.15 K): 0.375
- solubility (mole fraction) (in ethyl acetate, 278.15 K): 0.093
- solubility (mole fraction) (in ethyl acetate, 283.15 K): 0.117
- solubility (mole fraction) (in ethyl acetate, 288.15 K): 0.146
- solubility (mole fraction) (in ethyl acetate, 293.15 K): 0.179
- solubility (mole fraction) (in ethyl acetate, 298.15 K): 0.223
- solubility (mole fraction) (in ethyl acetate, 303.15 K): 0.271
- solubility (mole fraction) (in ethyl acetate, 308.15 K): 0.332
- solubility (mole fraction) (in ethyl acetate, 313.15 K): 0.404
- solubility (mole fraction) (in isopropanol, 278.15 K): 0.018
- solubility (mole fraction) (in isopropanol, 283.15 K): 0.0274
- solubility (mole fraction) (in isopropanol, 288.15 K): 0.0414
- solubility (mole fraction) (in isopropanol, 293.15 K): 0.0681
- solubility (mole fraction) (in isopropanol, 298.15 K): 0.107
- solubility (mole fraction) (in isopropanol, 303.15 K): 0.165
- solubility (mole fraction) (in isopropanol, 308.15 K): 0.254
- solubility (mole fraction) (in isopropanol, 313.15 K): 0.36
- solubility (mole fraction) (in methanol, 278.15 K): 0.112
- solubility (mole fraction) (in methanol, 283.15 K): 0.141
- solubility (mole fraction) (in methanol, 288.15 K): 0.174
- solubility (mole fraction) (in methanol, 293.15 K): 0.221
- solubility (mole fraction) (in methanol, 298.15 K): 0.266
- solubility (mole fraction) (in methanol, 303.15 K): 0.324
- solubility (mole fraction) (in methanol, 308.15 K): 0.393
- solubility (mole fraction) (in methanol, 313.15 K): 0.461
- solubility (mole fraction) (in methyl acetate, 278.15 K): 0.156
- solubility (mole fraction) (in methyl acetate, 283.15 K): 0.188
- solubility (mole fraction) (in methyl acetate, 288.15 K): 0.227
- solubility (mole fraction) (in methyl acetate, 293.15 K): 0.27
- solubility (mole fraction) (in methyl acetate, 298.15 K): 0.321
- solubility (mole fraction) (in methyl acetate, 303.15 K): 0.377
- solubility (mole fraction) (in methyl acetate, 308.15 K): 0.441
- solubility (mole fraction) (in methyl acetate, 313.15 K): 0.515
- solubility (mole fraction) (in n-butanol, 278.15 K): 0.0113
- solubility (mole fraction) (in n-butanol, 283.15 K): 0.0181
- solubility (mole fraction) (in n-butanol, 288.15 K): 0.0293
- solubility (mole fraction) (in n-butanol, 293.15 K): 0.0436
- solubility (mole fraction) (in n-butanol, 298.15 K): 0.0654
- solubility (mole fraction) (in n-butanol, 303.15 K): 0.0954
- solubility (mole fraction) (in n-butanol, 308.15 K): 0.145
- solubility (mole fraction) (in n-butanol, 313.15 K): 0.222
- solubility (mole fraction) (in n-propanol, 278.15 K): 0.0096
- solubility (mole fraction) (in n-propanol, 283.15 K): 0.0162
- solubility (mole fraction) (in n-propanol, 288.15 K): 0.0253
- solubility (mole fraction) (in n-propanol, 293.15 K): 0.0409
- solubility (mole fraction) (in n-propanol, 298.15 K): 0.0638
- solubility (mole fraction) (in n-propanol, 303.15 K): 0.0996
- solubility (mole fraction) (in n-propanol, 308.15 K): 0.157
- solubility (mole fraction) (in n-propanol, 313.15 K): 0.24
